US8946142B2, “Beta-arrestin effectors and compositions and methods of use thereof” (Trevena, Inc., priority 2012, dated 2015)
Where two headings read alike, the source gives them in different places. Where a SMILES comes first, the peptide text is derived from it. Bridges are numbered along the chain shown (N, C = ends). [ ]: non-standard residue; d: D form. The star is where a group is joined. Val(3-OH) = CC(C)(O)[C@H](N)C(=O)O; Tle = CC(C)(C)[C@H](N)C(=O)O; Ac6c = NC1(C(=O)O)CCCCC1; NHCH2tBu = CC(C)(C)CN*; Aib = CC(C)(N)C(=O)O; Sar = CNCC(=O)O

Experiments:
human AT1R = molecular target: T1, human AT1R (Homo sapiens, UniProt P30556); assay: beta-arrestin2 recruitment assay (PathHunter), human AT1R; type: cell-based; details: for Emax: 1 h, read-out: Span (relative to hAngII)
T1 sequence (P30556 1-359): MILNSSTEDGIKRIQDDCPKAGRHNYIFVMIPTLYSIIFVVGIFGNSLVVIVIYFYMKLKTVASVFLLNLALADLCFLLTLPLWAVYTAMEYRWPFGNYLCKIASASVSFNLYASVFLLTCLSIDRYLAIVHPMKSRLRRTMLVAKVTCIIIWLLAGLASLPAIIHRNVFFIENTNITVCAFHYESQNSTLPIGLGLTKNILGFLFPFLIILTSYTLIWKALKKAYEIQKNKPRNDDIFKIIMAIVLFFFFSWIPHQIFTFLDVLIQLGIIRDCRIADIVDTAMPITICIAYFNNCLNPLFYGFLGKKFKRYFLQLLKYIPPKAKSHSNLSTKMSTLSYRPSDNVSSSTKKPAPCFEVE
Protocol: (§1) The proximal event in β-arrestin function mediated by GPCRs is recruitment to receptors following ligand binding and receptor phosphorylation by GRK's. Thus, the measure of β-arrestin recruitment was used to determine ligand efficacy for β-arrestin function.
(§2) B-arrestin-2 recruitment to the human and rat angiotensin 2 type 1 receptor (human AT1R and rat AT1aR, respectively) was measured with the PathHunter™ μl-arrestin assay (DiscoveRx Corporation, Fremont Calif.). Cells, plasmid(s), and detection reagent(s) were purchased from DiscoveRx, and assays were performed per manufacturer's instructions. Human AT1R and rat AT1aR were cloned into the pCMV-ProLink vector, verified by sequencing, and transfected into PathHunter β-arrestin HEK293 cells. Stably transfected clonal cell lines were selected with Hygromycin and G418. These clonal cell lines were used for all experiments.
(§3) For assays, 4,000-8,000 cells were seeded per well in 384-well microplates “HiBase” small-volume plate in volumes of 20 uL and grown overnight in the incubator (37° C., 5% CO2, saturated humidity). Peptides were dissolved in DMSO to a concentration of 10 mM. Peptides were then further diluted in assay buffer (Hank's balanced salt solution with 20 mM HEPES) to add peptide to the cells to reach final concentrations ranging from 100 μM to 1 pM. Cells were then incubated for 60 minutes at 37° C. in 5% CO2, followed by addition of 2 μL of PathHunter Detection Reagent to each well. The microplates were then incubated at room temperature for 60 minutes, and then luminescence was measured using a PHERAstar Plus microplate reader from BMG Labtech. B-arrestin-2 recruitment to receptors was measured as relative luminescence intensity expressed in arbitrary units.

rat AT1aR = molecular target: T2, rat AT1aR (Rattus norvegicus, UniProt P25095); assay: beta-arrestin2 recruitment assay (PathHunter), rat AT1aR; type: cell-based; details: for Emax: 1 h, read-out: Span (relative to hAngII)
T2 sequence (P25095 1-359): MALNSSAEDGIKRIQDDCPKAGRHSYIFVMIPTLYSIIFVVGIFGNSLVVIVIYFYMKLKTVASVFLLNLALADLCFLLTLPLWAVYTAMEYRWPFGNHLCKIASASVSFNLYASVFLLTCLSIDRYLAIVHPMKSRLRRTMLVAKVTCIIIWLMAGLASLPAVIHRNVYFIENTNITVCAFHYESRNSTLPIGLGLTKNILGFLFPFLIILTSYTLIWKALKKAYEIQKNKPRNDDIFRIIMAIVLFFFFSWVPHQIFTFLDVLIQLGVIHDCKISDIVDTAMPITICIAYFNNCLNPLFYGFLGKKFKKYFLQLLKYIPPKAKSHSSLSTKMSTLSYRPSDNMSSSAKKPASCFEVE
Protocol: as §1, §2, §3

Row | SMILES | Emax (human AT1R) | EC50 (human AT1R; read-out: EC50) | EC50 (human AT1R; read-out: pEC50 (converted)) | Emax (rat AT1aR) | EC50 (rat AT1aR; read-out: EC50) | EC50 (rat AT1aR; read-out: pEC50 (converted))
1 | CNCC(=O)N[C@@H](CCCNC(=N)N)C(=O)N[C@H](C(=O)N[C@@H](Cc1ccc(O)cc1)C(=O)NC1(C(=O)N[C@@H](Cc2c[nH]cn2)C(=O)N2CCC[C@H]2C(=O)NCC(C)(C)C)CCCCC1)C(C)C [SEQ ID NO: 47, Sar-Arg-Val-Tyr-cyHex-His-Pro-NH-neopentyl] (H-[Sar]RVY[Ac6c]HP-NHCH2tBu) | < 101% | > 3.2 nM | > 3.16 nM |  |  | 
2 | CC[C@H](C)[C@@H]1NC(=O)[C@H](NC(=O)[C@@H](NC(=O)[C@H](CCCNC(=N)N)NC(=O)CNC)C(C)C)CSSC[C@@H](C(=O)N[C@H](C)C(=O)O)NC(=O)[C@H](Cc2c[nH]cn2)NC1=O [SEQ ID NO: 52, Sar-Arg-Val-D-Cys-Ile-His-Cys-D-Ala] (H-[Sar]RV[dC]IHC[dA]-OH; disulfide 4-7; N-terminus and C-terminus assumed) | < 101% |  |  | < 105% |  | 
3 | CNCC(=O)N[C@@H](CCCNC(=N)N)C(=O)N[C@H](C(=O)N[C@@H](Cc1ccc(O)cc1)C(=O)NC1(C(=O)N[C@@H](Cc2c[nH]cn2)C(=O)N2CCC[C@H]2C(=O)N[C@@H](CCC(=O)O)C(=O)O)CCCCC1)C(C)C [SEQ ID NO: 43, Sar-Arg-Val-Tyr-cyHex-His-Pro-Glu] (H-[Sar]RVY[Ac6c]HPE-OH) | < 101% | > 3.2 nM | > 3.16 nM | < 105% | > 3.2 nM | > 3.16 nM
4 | CNCC(=O)N[C@@H](CCCNC(=N)N)C(=O)N[C@H](C(=O)N[C@@H](Cc1ccc(O)cc1)C(=O)NC1(C(=O)N[C@@H](Cc2c[nH]cn2)C(=O)N2CCC[C@H]2C(=O)NCC(=O)O)CCCCC1)C(C)C [SEQ ID NO: 32, Sar-Arg-Val-Tyr-cyHex-His-Pro-Gly] (H-[Sar]RVY[Ac6c]HPG-OH) | < 101% | > 3.2 nM | > 3.16 nM | < 105% | > 3.2 nM | > 3.16 nM
5 | CNCC(=O)N[C@@H](CCCNC(=N)N)C(=O)N[C@H](C(=O)N[C@@H](Cc1ccc(O)cc1)C(=O)NC1(C(=O)N[C@@H](Cc2c[nH]cn2)C(=O)N2CCC[C@H]2C(=O)N[C@H](C(=O)O)C(C)(C)O)CCCCC1)C(C)C [SEQ ID NO: 31, Sar-Arg-Val-Tyr-cyHex-His-Pro-AA03] (H-[Sar]RVY[Ac6c]HP[Val(3-OH)]-OH) | < 101% | > 3.2 nM | > 3.16 nM | < 105% | > 3.2 nM | > 3.16 nM
6 | CNCC(=O)N[C@@H](CCCNC(=N)N)C(=O)N[C@H](C(=O)N[C@@H](Cc1ccc(O)cc1)C(=O)N[C@H](C(=O)N[C@@H](Cc1c[nH]cn1)C(=O)N1CCC[C@H]1C(=O)N[C@H](C(=O)O)C(C)C)C(C)(C)C)C(C)C [SEQ ID NO: 29, Sar-Arg-Val-Tyr-AA02-His-Pro-Val] (H-[Sar]RVY[Tle]HPV-OH) | < 101% | > 3.2 nM | > 3.16 nM | < 105% | > 3.2 nM | > 3.16 nM
7 | CNCC(=O)N[C@@H](CCCNC(=N)N)C(=O)N[C@H](C(=O)N[C@@H](Cc1ccc(O)cc1)C(=O)NC1(C(=O)N[C@@H](Cc2c[nH]cn2)C(=O)N2CCC[C@H]2C(=O)NC(C)(C)C(=O)O)CCCCC1)C(C)C [SEQ ID NO: 35, Sar-Arg-Val-Tyr-cyHex-His-Pro-AA01] (H-[Sar]RVY[Ac6c]HP[Aib]-OH) | < 101% | > 3.2 nM | > 3.16 nM | < 105% | > 3.2 nM | > 3.16 nM
8 | CNCC(=O)N[C@@H](CCCNC(=N)N)C(=O)N[C@H](C(=O)N[C@@H](Cc1ccc(O)cc1)C(=O)NC1(C(=O)N[C@@H](Cc2c[nH]cn2)C(=O)N2CCC[C@H]2C(=O)N[C@@H](CS)C(=O)O)CCCCC1)C(C)C [SEQ ID NO: 34, Sar-Arg-Val-Tyr-cyHex-His-Pro-Cys] (H-[Sar]RVY[Ac6c]HPC-OH) | < 101% | > 3.2 nM | > 3.16 nM | < 105% | > 3.2 nM | > 3.16 nM
9 | CCNC(=O)[C@@H]1CCCN1C(=O)[C@H](Cc1c[nH]cn1)NC(=O)C1(NC(=O)[C@H](Cc2ccc(O)cc2)NC(=O)[C@@H](NC(=O)[C@H](CCCNC(=N)N)NC(=O)CNC)C(C)C)CCCCC1 [SEQ ID NO: 48, Sar-Arg-Val-Tyr-cyHex-His-Pro-NH-ethyl] (H-[Sar]RVY[Ac6c]HP-NHEt) | < 101% | > 3.2 nM | > 3.16 nM | < 105% | > 3.2 nM | > 3.16 nM
10 | CNCC(=O)N[C@@H](CCCNC(=N)N)C(=O)N[C@H](C(=O)N[C@@H](Cc1ccc(O)cc1)C(=O)NC1(C(=O)N[C@@H](Cc2c[nH]cn2)C(=O)N2CCC[C@H]2C(=O)N[C@@H](CCCCN)C(=O)O)CCCCC1)C(C)C [SEQ ID NO: 50, Sar-Arg-Val-Tyr-cyHex-His-Pro-Lys] (H-[Sar]RVY[Ac6c]HPK-OH) | < 101% | > 3.2 nM | > 3.16 nM | < 105% | > 3.2 nM | > 3.16 nM
11 | CNCC(=O)N[C@@H](CCCNC(=N)N)C(=O)N[C@H](C(=O)N[C@@H](Cc1ccc(O)cc1)C(=O)NC1(C(=O)N[C@@H](Cc2c[nH]cn2)C(=O)N2CCC[C@H]2C(=O)O)CCCCC1)C(C)C [SEQ ID NO: 41, Sar-Arg-Val-Tyr-cyHex-His-Pro] (H-[Sar]RVY[Ac6c]HP-OH) | < 101% | > 3.2 nM | > 3.16 nM | < 105% | > 3.2 nM | > 3.16 nM
12 | CNCC(=O)N[C@@H](CCCNC(=N)N)C(=O)N[C@H](C(=O)N[C@@H](Cc1ccc(O)cc1)C(=O)NC1(C(=O)N[C@@H](Cc2c[nH]cn2)C(=O)N2CCC[C@H]2C(=O)N[C@@H](CC(N)=O)C(=O)O)CCCCC1)C(C)C [SEQ ID NO: 36, Sar-Arg-Val-Tyr-cyHex-His-Pro-Asn] (H-[Sar]RVY[Ac6c]HPN-OH) | < 101% | > 3.2 nM | > 3.16 nM | < 105% | > 3.2 nM | > 3.16 nM
13 | CNCC(=O)N[C@@H](CCCNC(=N)N)C(=O)N[C@H](C(=O)N[C@@H](Cc1ccc(O)cc1)C(=O)NC1(C(=O)N[C@@H](Cc2c[nH]cn2)C(=O)N2CCC[C@H]2C(=O)NC)CCCCC1)C(C)C [SEQ ID NO: 49, Sar-Arg-Val-Tyr-cyHex-His-Pro-NH-methyl] (H-[Sar]RVY[Ac6c]HP-NHMe) | < 101% | > 3.2 nM | > 3.16 nM | < 105% | > 3.2 nM | > 3.16 nM
